Where a SMILES comes first, the peptide text is derived from it. [ ]: non-standard residue; d: D form. The star is where a group is joined. ξ: configuration not given here. Ala(6-(2-MePh)pyridin-3-yl) = Cc1ccccc1-c1ccc(C[C@H](N)C(=O)O)cn1; Phe(4-(2-Et-4-HO-Ph)) = CCc1cc(O)ccc1-c1ccc(C[C@H](N)C(=O)O)cc1; ξαMePhe(2-F) = CC(N)(Cc1ccccc1F)C(=O)O; ξαMeP = CC1(C(=O)O)CCCN1; Moc = COC(=O)*
Legend:
[1] = target: T1, Human GLP-1 Receptor (Homo sapiens, UniProt P43220); test: Cyclic AMP determination in CHO cells expressing human GLP-1 receptor; assay type: cell-based
T1 construct: Full-length human glucagon-like peptide 1 receptor was stably expressed in CHO-K1 cells; expressed in transfected cells; host or cells: CHO-K1 (clone CHO-GLP1R-19)
T1 sequence (P43220 24-463): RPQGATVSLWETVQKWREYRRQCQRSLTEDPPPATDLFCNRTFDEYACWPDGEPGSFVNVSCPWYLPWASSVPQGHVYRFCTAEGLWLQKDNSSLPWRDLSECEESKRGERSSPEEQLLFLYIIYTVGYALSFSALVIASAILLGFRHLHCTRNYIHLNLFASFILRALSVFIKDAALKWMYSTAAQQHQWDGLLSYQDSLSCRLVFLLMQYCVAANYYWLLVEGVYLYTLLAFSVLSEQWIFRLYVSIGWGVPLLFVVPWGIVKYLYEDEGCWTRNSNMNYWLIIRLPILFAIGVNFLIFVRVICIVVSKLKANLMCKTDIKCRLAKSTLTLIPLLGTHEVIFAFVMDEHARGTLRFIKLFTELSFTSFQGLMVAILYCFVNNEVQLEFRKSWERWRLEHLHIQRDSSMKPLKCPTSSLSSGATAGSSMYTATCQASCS
Procedure: (§1) CHO-GLP-1R-19 cells (20,000 in 100 μl of media) were plated into each well of a 96-well tissue culture microtiter plate and incubated overnight in a 5% CO2 atmosphere at 37° C. On the day of the assay, cells were washed once with 100 μl of phosphate-buffered saline (PBS). A Biomek 2000 was used to serially dilute all peptides prior to beginning the assay. Serial dilutions were carried out in 100% DMSO.
(§2) 50 μl of each cAMP standard was added by hand and 70 μl of mix reagent (Amersham cAMP SPA kit) was added using the multidrop. […] This standard curve was used to convert CPM to pmol of cAMP.
(§3) Cell plates and peptide plates were loaded onto the Platemate. The media was aspirated from the wells and discarded. 100 uL per well of the peptide/buffer mixture were then added from the peptide plates to initiate the assay. After 30 min. of incubation the peptide/buffer was removed and 50 uL of the lysis reagent 1 solution was added per well. The plate was kept for one hour at RT or overnight if refrigerated and sealed.
(§4) Dose dependence for Compounds was determined at half-log concentrations in duplicate. […] A standard curve was determined using known amounts of cyclic AMP. […] The data were analyzed by nonlinear regression curve fitting (4 parameter sigmoidal dose-response curve) to determine the EC50 of the compounds.

[2] = target: T2, Mouse GLP-1 Receptor (Mus musculus, UniProt O35659); test: Stimulation of cAMP synthesis in CHO cells expressing mouse GLP-1 receptor; assay type: cell-based
T2 construct: expressed in transfected cells; host or cells: CHO cells
T2 sequence (O35659 22-463): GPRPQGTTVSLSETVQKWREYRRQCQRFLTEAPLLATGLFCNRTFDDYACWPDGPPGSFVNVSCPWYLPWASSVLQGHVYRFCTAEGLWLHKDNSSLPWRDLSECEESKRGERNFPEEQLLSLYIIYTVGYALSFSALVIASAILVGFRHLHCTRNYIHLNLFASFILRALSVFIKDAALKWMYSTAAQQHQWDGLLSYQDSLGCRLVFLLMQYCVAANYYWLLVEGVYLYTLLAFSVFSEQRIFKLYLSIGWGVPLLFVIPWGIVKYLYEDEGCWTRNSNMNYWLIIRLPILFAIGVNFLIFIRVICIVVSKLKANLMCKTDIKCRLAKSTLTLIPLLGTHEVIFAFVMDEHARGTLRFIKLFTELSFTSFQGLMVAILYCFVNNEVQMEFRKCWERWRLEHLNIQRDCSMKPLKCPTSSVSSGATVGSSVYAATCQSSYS
Procedure: as §1, §2, §3, §4

[3] = system: ob/ob mice; test: Intraperitoneal glucose tolerance test (ipGTT) in ob/ob mice after sc injection; assay type: in vivo, mouse
Procedure: (§5) Peptides were dissolved in an appropriate vehicle at a concentration in nmol/ml equivalent to the dose that was to be administered in nmol/kg so that each mouse would receive the same volume/weight of dosing solution. Male C57BL/6-ob/ob mice (10 weeks old) were randomized into groups of 6 mice per group based on fed plasma glucose and body weight. After an overnight fast, mice were weighed and placed in the experimental lab. After 30 min in the environment, the mice were bled via tail tip at −30 min and immediately injected subcutaneously (sc) with vehicle or the peptide dissolved in vehicle (0.1 ml solution/100 g body weight). At time 0 the mice were bled and then injected intraperitoneally with 50% glucose (2 g/kg) to initiate the intraperitoneal glucose tolerance test (ipGTT). The mice were bled 30, 60, 120 and 180 min after the glucose injection. Blood samples were drawn into potassium EDTA, placed on ice during the study and subsequently centrifuged for 10 min at 3000 rpm at 4° C. Plasma samples were diluted 11-fold for glucose analysis in the Cobas System. Another 5 μl plasma sample was diluted 5-fold with 20 μl of Sample Diluent (Insulin ELISA assay kit, Crystal Chem. Inc.) and stored at −20° C. for subsequent analysis using the Ultra Sensitive Mouse Insulin ELISA kit (Crystal Chem Inc.).

[4] = Exposure during ipGTT in ob/ob mice; assay type: in vivo, mouse; settings: sc injection
Procedure: as §5

[5] = Dog pharmacokinetic study; assay type: in vivo
Procedure: The pharmacokinetic parameters of the Compounds of SEQ ID NO: 9, 118, 151 and 158 were determined in male beagle dogs (n=3-4, 14±1 kg). Following an overnight fast, each animal received the Compounds of SEQ ID NO: 9, 118, 151 and 158 either as an intravenous bolus via femoral vein (67 μg/kg) or by subcutaneous injection given at near the shoulder blades (67 μg/kg). Each animal received both intravenous and subcutaneous doses with a one-week washout between doses following a crossover design. The dosing vehicle for both routes of administration was propylene glycol:pH 7.4 phosphate buffer (50:50) or 0.2 M Tris (pH 8.0). Serial blood samples were collected in EDTA-containing microcentrifuge tubes at predose, 0.083, 0.25, 0.5, 0.75, 1, 2, 4, 6, 8, 24, and 30 hours post-dose after intravenous administration; at predose, 0.25, 0.5, 0.75, 1, 2, 4, 6, 8, 24, and 30 hours post-dose after subcutaneous administration. Approximately 0.3 mL of blood was collected at each time point. Blood samples were immediately centrifuged at 4° C. The obtained plasma was frozen with dry ice and stored at −20° C. Plasma drug levels were determined using the LC-MS/MS assay described below.
Plasma samples from the in vivo dog study were prepared for analysis by precipitating plasma proteins with two volumes of AcCN containing an internal standard. The samples were vortex mixed and the precipitated proteins were removed by centrifugation. The resulting supernatants were transferred to a 96-well plate and 10 μL were injected for TFC-LC/MS/MS analysis.
The TFC-HPLC system (Cohesive TX-1 Flux, Aria 2300 System) consisted of a loading pump, an eluting pump, and a CTC PAL autosampler (Cohesive Technologies, Franklin, Mass.). The columns used were Phenomenex Synergi Fusion-RP (C18, 2.0×50 mm, 4μ) (Phenomenex, Torrance, Calif.) as the analytical column and Turbo-Flow (TF) HTLC Cyclone column (0.5×50 mm) (Cohesive Technologies, Franklin, Mass.) as the extraction column for on-line sample processing. The mobile phase A consisted of 10 mM ammonium formate and 0.1% formic acid in water and mobile phase B consisted of 0.1% formic acid in AcCN. Turbo-Flow Chromatography was used to obtain a cleaner sample. A rapid gradient elution was used for analyte separation. The samples were injected onto the Turbo-Flow HTLC Cyclone column and analytes were separated from biological fluid components with using 100% H2O at 1.5 mL/min. The TF column was back flushed and analytes were back eluted from the TF to HPLC analytical column using a ramp to 60% B over 2 min and held there for 30 seconds at 0.3 mL/min to separate and to elute the analytes from the HPLC column into the mass spectrometer. Both columns were washed for an additional minute and then both columns were re-equilibrated at initial conditions.
The HPLC was interfaced to a Sciex API 4000 mass spectrometer (Applied Biosystems, Foster City, Calif.) and was equipped with a TurboIonspray ionization source. Ultra high purity nitrogen was used as the nebulizing and turbo-gas. The temperature of turbo-gas was set at 300° C. and the interface heater was set at 60° C. Selected Reaction Monitoring (SRM) was used for data acquisition. Multiple charged ion species, i.e. (M+2H)^2+ for Compound of SEQ ID NO: 158 were selected in Q1 and were collisionally dissociated with high purity nitrogen at a pressure of 3.5×10^−3 torr in Q2 to form specific product ions which were subsequently monitored in Q3. The ion transitions and voltages are summarized below (Table 4).
The standard curve concentrations, ranging from 1 to 1000 nM, were analyzed in duplicate. The curves were fitted with a linear regression weighted by reciprocal concentration […]. Quality control (QC) samples, prepared in blank matrix at the same concentrations as the standards were also analyzed in each analytical set. […]

- EC50 [1]: 0.018 nM
- Emax ([1]; CHO, percent of maximal GLP-1 stimulated activity, human GLP-1 receptor): 101 ± 6.7%
- Mean Hill ([1]; human GLP-1 receptor): 1.5
- Mean Hill [2]: 1.5
- Emax ([2]; CHO, percent of maximal GLP-1 stimulated activity): 101 ± 7.2%
- Exposure/dose during ipGTT in ob/ob mice [4]: 11 nM * h/nmol/kg
- Vd ([5]; dog, plasma, 67 ug/kg, male beagle dogs, intravenous 67 μg/kg, read-out: Vss): 0.15 ± 0.02 L/kg
- Exposure in dogs (sc@67 μg/kg) ([5]; sc 67 μg/kg, vehicle 0.2 M Tris buffer (pH 8.0)): 1.467 µM·h
SMILES: CCc1cc(O)ccc1-c1ccc(C[C@H](NC(=O)[C@H](CC(=O)O)NC(=O)[C@H](CO)NC(=O)[C@@H](NC(=O)C(C)(Cc2ccccc2F)NC(=O)[C@@H](NC(=O)CNC(=O)[C@H](CCC(=O)O)NC(=O)C2(C)CCCN2C(=O)[C@H](Cc2c[nH]cn2)NC(=O)OC)[C@@H](C)O)[C@@H](C)O)C(=O)N[C@@H](Cc2ccc(-c3ccccc3C)nc2)C(N)=O)cc1 (some centres unmarked) [SEQ ID NO: 158] (Moc-H[ξαMeP]EGT[ξαMePhe(2-F)]TSD[Phe(4-(2-Et-4-HO-Ph))][Ala(6-(2-MePh)pyridin-3-yl)]-NH2)
- plasma glucose AUC decreased ([3]; 10 nmol/kg sc, ipGTT ob/ob mice): 66%
- Potency in ob/ob mice ED50 ([3]; sc injection, plasma glucose AUC in ipGTT): ED50 = 2 nmoles/kg
- effect on postprandial plasma glucose ([3]; sc, ipGTT ob/ob mice, 0 to 180 or 210 min): statistically significant decrease

From patent US7960349B2 (Bristol-Myers Squibb Company, priority 2006, dated 2011)
